Data on 21 compounds can be found in patent US8957093B2, “N-biphenylmethylindole modulators of PPARG” (The Scripps Research Institute, priority 2011, dated 2015).

Structures are written as SMILES. Read-outs that look alike come from different tables or passages of the source. A value given as a limit tells only on which side of the number the result lay.

One experiment has as its target GST-PPARG-LBD (Homo sapiens (Human), UniProt P37231). Briefly: Lanthascreen PPARG competitive binding assay (Invitrogen, TR-FRET). The note with it: Lanthascreen competitive binding; NA = not active; inc = incomplete curve; read-out: IC50 (nM) Lantha. The gist of the method: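 Values are fold change in 520 nm/490 nm FRET ratio relative to a 2% DMSO no-ligand control, excitation 340 nm. Compound dilutions starting at 10 μM competed against 5 nM Fluormone Pan-PPAR Green for GST-PPARG-LBD bound by 5 nM Tb anti-GST antibody. Incubation 2 h in the dark in assay buffer C, triplicate wells.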
Background: In TR-FRET formats the signal depends on donor and acceptor labels being close together.

Experiment [1] concerns the target Gal-4-PPAR (human PPAR LBD fused to GAL4 DNA-binding domain) (Homo sapiens (Human), UniProt P37231). Briefly: GAL4-PPARG LBD / UAS-luciferase transactivation assay in HEK 293T cells. It is filed as cell-based.
The mark [2] stands for this setting: GAL4 transactivation, HEK 293T cells; NA = not active; read-out: EC50 (nM) GAL4.
[3] abbreviates: HEK-293T, 18 h; read-out: % transactivation at 10 μM (GAL4).

In general, IC50 refers to the concentration that gives 50% inhibition. In general, EC50 refers to the concentration needed to bring the measured effect to its halfway point.

Gal-4-PPAR (human PPAR LBD fused to GAL4 DNA-binding domain), sequence (P37231 238-503): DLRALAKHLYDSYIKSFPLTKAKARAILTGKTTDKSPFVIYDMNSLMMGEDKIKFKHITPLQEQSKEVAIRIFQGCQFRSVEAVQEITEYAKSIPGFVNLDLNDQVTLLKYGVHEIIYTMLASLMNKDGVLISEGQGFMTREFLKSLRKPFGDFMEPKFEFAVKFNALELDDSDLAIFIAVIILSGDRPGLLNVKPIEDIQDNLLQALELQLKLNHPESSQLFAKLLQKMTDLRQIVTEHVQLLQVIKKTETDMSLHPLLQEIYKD
GST-PPARG-LBD, sequence (P37231 238-503): as above

Take `Cc1c(C)n(Cc2ccc(-c3ccccc3C(=O)O)cc2)c2ccc(C(=O)N[C@@H](C)c3cc(C(F)(F)F)ccc3C(F)(F)F)cc12` [Example 172, (S)-4′-((5-((1-(2,5-bis(trifluoromethyl)phenyl)ethyl)carbamoyl)-2,3-dimethyl-1H-indol-1-yl)methyl)-[1,1′-biphenyl]-2-carboxylic acid]: at GST-PPARG-LBD, the IC50 amounted to 9 nM. For the same compound, the concentration for a half-maximal effect (EC50) in experiment [1] (setting [2]) amounted to 106 nM. For the same compound, the activation at 10 µM in experiment [1] (setting [3]) is 8%.

On to `Cc1c(C)n(Cc2ccc(-c3ccccc3C(=O)O)cc2)c2ccc(C(=O)N[C@H](C)c3cc(C(F)(F)F)ccc3C(F)(F)F)cc12` [Example 173, (R)-4′-((5-((1-(2,5-bis(trifluoromethyl)phenyl)ethyl)carbamoyl)-2,3-dimethyl-1H-indol-1-yl)methyl)-[1,1′-biphenyl]-2-carboxylic acid], for which the IC50 on GST-PPARG-LBD was determined as 4 nM. Further, in experiment [1] (setting [2]), the EC50 amounted to 161 nM. In addition, the activation at 10 µM in experiment [1] (setting [3]) turned out to be 1%.

Regarding `COc1ccccc1[C@H](C)NC(=O)c1ccc2c(c1)c(C)c(C)n2Cc1ccc(-c2ccccc2C(=O)O)cc1` [Example 175, (S)-4′-((5-((1-(2-methoxyphenyl)ethyl)carbamoyl)-2,3-dimethyl-1H-indol-1-yl)methyl)-[1,1′-biphenyl]-2-carboxylic acid], on GST-PPARG-LBD, the IC50 came to 16 nM. Moreover, the EC50 in experiment [1] (setting [2]) amounted to 360 nM. For the same compound, the activation at 10 µM in experiment [1] (setting [3]) is 20%.

On to `Cc1c(C)n(Cc2ccc(-c3ccccc3C(=O)O)cc2)c2ccc(C(=O)NC(C)(C)c3ccc(Br)cc3)cc12` [Example 180, 4′-((5-((2-(4-bromophenyl)propan-2-yl)carbamoyl)-2,3-dimethyl-1H-indol-1-yl)methyl)-[1,1′-biphenyl]-2-carboxylic acid], for which the concentration for half-maximal inhibition (IC50) at GST-PPARG-LBD was 1 nM. The EC50 in experiment [1] (setting [2]) stood at 119 nM. For the same compound, the activation at 10 µM in experiment [1] (HEK-293T, 18 h, read-out: % transactivation at 10 μM (GAL4)) is 60%.

With `Cc1c(C)n(Cc2ccc(-c3ccccc3C(=O)O)cc2)c2ccc(C(=O)N[C@H](C)c3ccnc4ccccc34)cc12` [Example 181, (R)-4′-((2,3-dimethyl-5-((1-(quinolin-4-yl)ethyl)carbamoyl)-1H-indol-1-yl)methyl)-[1,1′-biphenyl]-2-carboxylic acid], on GST-PPARG-LBD, the IC50 was 512 nM. Also, the EC50 in experiment [1] (setting [2]) was 5240 nM. Further, the activation at 10 µM in experiment [1] (setting [3]) came out at 40%.

Take `Cc1c(C)n(Cc2ccc(-c3ccccc3-c3nnn[nH]3)cc2)c2ccc(C(=O)N[C@H](C)c3cccc(Br)c3)cc12` [Example 187, (R)-1-((2′-(1H-tetrazol-5-yl)-[1,1′-biphenyl]-4-yl)methyl)-N-(1-(3-bromophenyl)ethyl)-2,3-dimethyl-1H-indole-5-carboxamide]: on GST-PPARG-LBD, the IC50 is under 1 nM. Moreover, in experiment [1] (setting [2]), the EC50 turned out to be 5 nM. For the same compound, the activation at 10 µM in experiment [1] (setting [3]) is 20%.

For the compound `Cc1c(C)n(Cc2ccc(-c3ccccc3-c3nnn[nH]3)cc2)c2ccc(C(=O)N[C@@H](C)c3cccc(C4CC4)c3)cc12` [Example 188, (S)-1-((2′-(1H-tetrazol-5-yl)-[1,1′-biphenyl]-4-yl)methyl)-N-(1-(3-cyclopropylphenyl)ethyl)-2,3-dimethyl-1H-indole-5-carboxamide], the IC50 on GST-PPARG-LBD came out at 10 nM. In addition, the EC50 in experiment [1] (setting [2]) came to 3150 nM. The activation at 10 µM in experiment [1] (setting [3]) turned out to be 20%.

Consider `CC[C@@H](NC(=O)c1ccc2c(ccn2Cc2ccccc2-c2ccc(C(=O)O)cc2)c1)c1ccccc1` [Example 190, (R)-2′-((5-((1-phenylpropyl)carbamoyl)-1H-indol-1-yl)methyl)-[1,1′-biphenyl]-4-carboxylic acid], for which the half-inhibitory concentration (IC50) at GST-PPARG-LBD was 5 nM. In experiment [1] (setting [2]), the EC50 was 51 nM. Besides, the activation at 10 µM in experiment [1] (setting [3]) was 45%.

Take `CC[C@H](NC(=O)c1ccc2c(ccn2Cc2ccccc2-c2cccc(C(=O)O)c2)c1)c1ccccc1` [Example 191, (S)-2′-((5-((1-phenylpropyl)carbamoyl)-1H-indol-1-yl)methyl)-[1,1′-biphenyl]-3-carboxylic acid]: at GST-PPARG-LBD, the concentration for half-maximal inhibition (IC50) stood at 80 nM. In addition, in experiment [1] (setting [2]), the EC50 worked out at 1000 nM. In addition, the activation at 10 µM in experiment [1] (setting [3]) came out at 20%.

As for `CC[C@@H](NC(=O)c1ccc2c(ccn2Cc2ccccc2-c2cccc(C(=O)O)c2)c1)c1ccccc1` [Example 192, (R)-2′-((5-((1-phenylpropyl)carbamoyl)-1H-indol-1-yl)methyl)-[1,1′-biphenyl]-3-carboxylic acid], on GST-PPARG-LBD, the concentration for half-maximal inhibition (IC50) was determined as 4 nM. Further, the EC50 in experiment [1] (setting [2]) worked out at 27 nM. In addition, the activation at 10 µM in experiment [1] (setting [3]) was determined as 40%.

With `COc1ccc([C@H](C)NC(=O)c2ccc3c(c2)c(C)c(C)n3Cc2ccc(-c3ccccc3C(=O)O)cc2)cc1Cl` [Example 197, (S)-4′-((5-((1-(3-chloro-4-methoxyphenyl)ethyl)carbamoyl)-2,3-dimethyl-1H-indol-1-yl)methyl)-[1,1′-biphenyl]-2-carboxylic acid], the concentration for half-maximal inhibition (IC50) at GST-PPARG-LBD was 17 nM. Besides, the EC50 in experiment [1] (setting [2]) was 1630 nM. For the same compound, the activation at 10 µM in experiment [1] (setting [3]) amounted to 20%.

For the compound `Cc1c(C)n(Cc2ccc(-c3ccccc3C(=O)O)cc2)c2ccc(C(=O)N[C@@H](C)C3CCN(C(=O)OCc4ccccc4)CC3)cc12` [Example 202, (S)-4′-((5-((1-(1-((benzyloxy)carbonyl)piperidin-4-yl)ethyl)carbamoyl)-2,3-dimethyl-1H-indol-1-yl)methyl)-[1,1′-biphenyl]-2-carboxylic acid], the IC50 on GST-PPARG-LBD was 35 nM. For the same compound, the EC50 in experiment [1] (setting [2]) amounted to 1750 nM. For the same compound, the activation at 10 µM in experiment [1] (setting [3]) amounted to 40%.

For the compound `COc1ccc(F)cc1[C@@H](C)NC(=O)c1ccc2c(c1)c(C)c(C)n2Cc1ccc(-c2ccccc2C(=O)O)cc1` [Example 205, (R)-4′-((5-((1-(5-fluoro-2-methoxyphenyl)ethyl)carbamoyl)-2,3-dimethyl-1H-indol-1-yl)methyl)-[1,1′-biphenyl]-2-carboxylic acid], the IC50 at GST-PPARG-LBD came to 5 nM. For the same compound, the EC50 in experiment [1] (setting [2]) was 637 nM. Also, the activation at 10 µM in experiment [1] (setting [3]) turned out to be 20%.

As to `COc1ccc(F)cc1[C@H](C)NC(=O)c1ccc2c(c1)c(C)c(C)n2Cc1ccc(-c2ccccc2C(=O)O)cc1` [Example 206, (S)-4′-((5-((1-(5-fluoro-2-methoxyphenyl)ethyl)carbamoyl)-2,3-dimethyl-1H-indol-1-yl)methyl)-[1,1′-biphenyl]-2-carboxylic acid], the concentration for half-maximal inhibition (IC50) at GST-PPARG-LBD is 26 nM. Further, the EC50 in experiment [1] (setting [2]) amounted to 405 nM. Also, the activation at 10 µM in experiment [1] (setting [3]) was 20%.

Consider `Cc1c(C)n(Cc2ccc(-c3ccccc3C(=O)O)cc2)c2ccc(C(=O)N[C@H](C)c3ccccc3C(F)(F)F)cc12` [Example 207, (R)-4′-((2,3-dimethyl-5-((1-(2-(trifluoromethyl)phenyl)ethyl)carbamoyl)-1H-indol-1-yl)methyl)-[1,1′-biphenyl]-2-carboxylic acid], for which, on GST-PPARG-LBD, the IC50 is 1 nM. In experiment [1] (setting [2]), the concentration for a half-maximal effect (EC50) stood at 629 nM. Besides, the activation at 10 µM in experiment [1] (setting [3]) stood at 20%.

As to `Cc1c(C)n(Cc2ccc(-c3ccccc3C(=O)O)cc2)c2ccc(C(=O)N[C@@H](C)c3ccccc3C(F)(F)F)cc12` [Example 208, (S)-4′-((2,3-dimethyl-5-((1-(2-(trifluoromethyl)phenyl)ethyl)carbamoyl)-1H-indol-1-yl)methyl)-[1,1′-biphenyl]-2-carboxylic acid], on GST-PPARG-LBD, the IC50 was determined as 22 nM. The EC50 in experiment [1] (setting [2]) is 369 nM. Also, the activation at 10 µM in experiment [1] (setting [3]) was determined as 20%.

Regarding `Cc1c(C)n(Cc2ccc(-c3ccccc3C(=O)O)cc2)c2ccc(C(=O)N[C@H](C)c3ccc(C(F)(F)F)cc3C(F)(F)F)cc12` [Example 209, (R)-4′-((5-((1-(2,4-bis(trifluoromethyl)phenyl)ethyl)carbamoyl)-2,3-dimethyl-1H-indol-1-yl)methyl)-[1,1′-biphenyl]-2-carboxylic acid], the 50% inhibitory concentration (IC50) at GST-PPARG-LBD came out at 11 nM. Besides, the EC50 in experiment [1] (setting [2]) worked out at 211 nM. The activation at 10 µM in experiment [1] (setting [3]) was found to be 10%.

Consider `Cc1c(C)n(Cc2ccc(-c3ccccc3C(=O)O)cc2)c2ccc(C(=O)N[C@@H](C)c3ccc(C(F)(F)F)cc3C(F)(F)F)cc12` [Example 210, (S)-4′-((5-((1-(2,4-bis(trifluoromethyl)phenyl)ethyl)carbamoyl)-2,3-dimethyl-1H-indol-1-yl)methyl)-[1,1′-biphenyl]-2-carboxylic acid], for which the IC50 on GST-PPARG-LBD turned out to be 241 nM. The EC50 in experiment [1] (setting [2]) was determined as 1290 nM. For the same compound, the activation at 10 µM in experiment [1] (setting [3]) turned out to be 20%.

In the case of `Cc1ccc(F)c([C@H](C)NC(=O)c2ccc3c(c2)c(C)c(C)n3Cc2ccc(-c3ccccc3C(=O)O)cc2)c1` [Example 211, (S)-4′-((5-((1-(2-fluoro-5-methylphenyl)ethyl)carbamoyl)-2,3-dimethyl-1H-indol-1-yl)methyl)-[1,1′-biphenyl]-2-carboxylic acid], the IC50 at GST-PPARG-LBD came out at 6 nM. In addition, in experiment [1] (setting [2]), the EC50 was found to be 251 nM. For the same compound, the activation at 10 µM in experiment [1] (setting [3]) worked out at 20%.

Take `Cc1c(C)n(Cc2ccc(-c3ccccc3C(=O)O)cc2)c2ccc(C(=O)N[C@@H](C)C3CCCCC3)cc12` [Example 212, (S)-4′-((5-((1-cyclohexylethyl)carbamoyl)-2,3-dimethyl-1H-indol-1-yl)methyl)-[1,1′-biphenyl]-2-carboxylic acid]: the IC50 on GST-PPARG-LBD amounted to 4 nM. Also, the EC50 in experiment [1] (setting [2]) was determined as 209 nM. Besides, in experiment [1] (setting [3]), the activation at 10 µM turned out to be 20%.

`Cc1c(C)n(Cc2ccc(-c3ccccc3C(=O)O)cc2)c2ccc(C(=O)N[C@H](C)C3COc4ccccc4O3)cc12` (stereo partly drawn) [Example 213, 4′-((5-(((1R)-1-(2,3-dihydrobenzo[b][1,4]dioxin-2-yl)ethyl)carbamoyl)-2,3-dimethyl-1H-indol-1-yl)methyl)-[1,1′-biphenyl]-2-carboxylic acid]: the IC50 at GST-PPARG-LBD was determined as 3 nM. Moreover, in experiment [1] (setting [2]), the EC50 was 672 nM. Moreover, the activation at 10 µM in experiment [1] (setting [3]) is 40%.
